Reference: ChEMBL document CHEMBL1938230, “6-Position optimization of tricyclic 4-quinolone-based inhibitors of glycogen synthase kinase-3β: discovery of nitrile derivatives with picomolar potency” (Bioorg Med Chem Lett, 2012)

Tests used:
[1] = target: T1, Serine/threonine-protein kinase TBK1 (Homo sapiens) (UniProt Q9UHD2); assay: Inhibition of human TBK1 in HL-60 cells lysate assessed as reduction of labeling of acyl-phosphate ATP probe at 100 nM; type: cell-free
T1 sequence (whole entry): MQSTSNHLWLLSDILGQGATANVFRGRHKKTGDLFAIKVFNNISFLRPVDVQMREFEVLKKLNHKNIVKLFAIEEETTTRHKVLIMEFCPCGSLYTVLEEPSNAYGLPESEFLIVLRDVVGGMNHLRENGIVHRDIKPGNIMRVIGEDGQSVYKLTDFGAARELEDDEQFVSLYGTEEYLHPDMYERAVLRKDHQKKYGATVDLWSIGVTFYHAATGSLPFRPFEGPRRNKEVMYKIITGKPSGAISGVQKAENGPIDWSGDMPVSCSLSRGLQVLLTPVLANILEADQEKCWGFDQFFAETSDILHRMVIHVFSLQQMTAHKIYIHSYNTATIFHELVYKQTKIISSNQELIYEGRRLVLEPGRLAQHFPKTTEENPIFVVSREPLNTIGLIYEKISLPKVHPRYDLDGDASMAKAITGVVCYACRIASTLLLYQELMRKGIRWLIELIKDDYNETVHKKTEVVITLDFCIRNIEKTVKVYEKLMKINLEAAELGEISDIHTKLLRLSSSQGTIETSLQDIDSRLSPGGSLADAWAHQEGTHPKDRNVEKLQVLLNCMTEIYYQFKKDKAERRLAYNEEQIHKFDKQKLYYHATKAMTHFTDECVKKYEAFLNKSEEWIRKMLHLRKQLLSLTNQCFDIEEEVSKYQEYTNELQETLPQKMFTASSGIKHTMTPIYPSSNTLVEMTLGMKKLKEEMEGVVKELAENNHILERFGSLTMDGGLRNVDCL

[2] = target: 1-phosphatidylinositol 3-phosphate 5-kinase (Homo sapiens) (UniProt Q9Y2I7); assay: Inhibition of human PIP5K3 in HL-60 cells lysate assessed as reduction of labeling of acyl-phosphate ATP probe at 100 nM; type: cell-free
[3] = target: Tyrosine-protein kinase Fer (Homo sapiens) (UniProt P16591); assay: Inhibition of human FER in HL-60 cells lysate assessed as reduction of labeling of acyl-phosphate ATP probe at 100 nM; type: cell-free
[4] = target: T2, Eukaryotic translation initiation factor 2-alpha kinase 3 (Homo sapiens) (UniProt Q9NZJ5); assay: Inhibition of human PEK in HL-60 cells lysate assessed as reduction of labeling of acyl-phosphate ATP probe at 100 nM; type: cell-free
T2 sequence (whole entry): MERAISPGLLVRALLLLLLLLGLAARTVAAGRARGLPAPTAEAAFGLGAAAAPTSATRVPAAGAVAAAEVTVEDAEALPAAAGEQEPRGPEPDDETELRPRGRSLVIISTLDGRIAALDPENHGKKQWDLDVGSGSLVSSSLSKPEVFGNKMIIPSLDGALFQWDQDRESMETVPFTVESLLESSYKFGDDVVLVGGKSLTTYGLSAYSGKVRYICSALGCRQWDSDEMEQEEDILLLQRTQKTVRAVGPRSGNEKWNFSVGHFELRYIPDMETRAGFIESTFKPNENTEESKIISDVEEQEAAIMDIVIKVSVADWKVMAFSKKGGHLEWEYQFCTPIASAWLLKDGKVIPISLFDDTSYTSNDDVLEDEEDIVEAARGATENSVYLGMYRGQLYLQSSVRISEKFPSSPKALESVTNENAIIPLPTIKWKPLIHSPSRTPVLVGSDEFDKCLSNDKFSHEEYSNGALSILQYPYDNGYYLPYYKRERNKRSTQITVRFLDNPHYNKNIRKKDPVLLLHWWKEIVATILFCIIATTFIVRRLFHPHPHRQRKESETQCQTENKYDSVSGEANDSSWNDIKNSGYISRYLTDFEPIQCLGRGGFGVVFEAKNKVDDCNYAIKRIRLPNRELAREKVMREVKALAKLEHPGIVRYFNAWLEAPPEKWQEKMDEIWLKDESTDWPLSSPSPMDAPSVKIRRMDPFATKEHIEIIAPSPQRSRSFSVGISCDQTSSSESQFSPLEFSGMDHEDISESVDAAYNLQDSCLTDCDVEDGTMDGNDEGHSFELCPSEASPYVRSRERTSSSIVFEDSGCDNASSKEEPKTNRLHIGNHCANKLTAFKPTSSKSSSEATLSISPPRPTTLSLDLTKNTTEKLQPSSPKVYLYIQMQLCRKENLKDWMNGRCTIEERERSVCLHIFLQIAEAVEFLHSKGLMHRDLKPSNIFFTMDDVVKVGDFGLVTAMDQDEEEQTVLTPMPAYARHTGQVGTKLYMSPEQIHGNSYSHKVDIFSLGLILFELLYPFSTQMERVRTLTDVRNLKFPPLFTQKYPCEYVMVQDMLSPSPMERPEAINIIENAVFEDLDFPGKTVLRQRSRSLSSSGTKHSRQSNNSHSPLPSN

[5] = target: Mitogen-activated protein kinase kinase kinase 1 (Homo sapiens) (UniProt Q13233); assay: Inhibition of human MAP3K1 in HL-60 cells lysate assessed as reduction of labeling of acyl-phosphate ATP probe at 100 nM; type: cell-free
HL-60 = assay: Inhibition of human TAO1/TAO3 in HL-60 cells lysate assessed as reduction of labeling of acyl-phosphate ATP probe at 100 nM
[6] = target: Phosphatidylinositol 4-kinase beta (Homo sapiens) (UniProt Q9UBF8); assay: Inhibition of human PI4KB in HL-60 cells lysate assessed as reduction of labeling of acyl-phosphate ATP probe at 100 nM; type: cell-free
[7] = target: T3, Phosphatidylinositol 5-phosphate 4-kinase type-2 beta (Homo sapiens) (UniProt P78356); assay: Inhibition of human PIP4K2B in HL-60 cells lysate assessed as reduction of labeling of acyl-phosphate ATP probe at 100 nM; type: cell-free
T3 sequence (whole entry): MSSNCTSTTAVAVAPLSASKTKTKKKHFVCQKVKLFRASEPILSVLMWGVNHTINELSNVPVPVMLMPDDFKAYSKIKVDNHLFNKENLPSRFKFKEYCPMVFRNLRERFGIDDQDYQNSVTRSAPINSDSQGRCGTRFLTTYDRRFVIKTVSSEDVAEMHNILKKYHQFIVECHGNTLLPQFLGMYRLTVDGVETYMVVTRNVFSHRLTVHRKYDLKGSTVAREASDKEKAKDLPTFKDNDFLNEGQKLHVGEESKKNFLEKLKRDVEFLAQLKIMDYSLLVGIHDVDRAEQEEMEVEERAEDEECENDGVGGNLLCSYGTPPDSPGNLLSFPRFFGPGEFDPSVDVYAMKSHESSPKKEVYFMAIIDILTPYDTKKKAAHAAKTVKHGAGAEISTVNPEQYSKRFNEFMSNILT

Sequence of Tyrosine-protein kinase Fer (Homo sapiens) (P16591 whole entry, looked up): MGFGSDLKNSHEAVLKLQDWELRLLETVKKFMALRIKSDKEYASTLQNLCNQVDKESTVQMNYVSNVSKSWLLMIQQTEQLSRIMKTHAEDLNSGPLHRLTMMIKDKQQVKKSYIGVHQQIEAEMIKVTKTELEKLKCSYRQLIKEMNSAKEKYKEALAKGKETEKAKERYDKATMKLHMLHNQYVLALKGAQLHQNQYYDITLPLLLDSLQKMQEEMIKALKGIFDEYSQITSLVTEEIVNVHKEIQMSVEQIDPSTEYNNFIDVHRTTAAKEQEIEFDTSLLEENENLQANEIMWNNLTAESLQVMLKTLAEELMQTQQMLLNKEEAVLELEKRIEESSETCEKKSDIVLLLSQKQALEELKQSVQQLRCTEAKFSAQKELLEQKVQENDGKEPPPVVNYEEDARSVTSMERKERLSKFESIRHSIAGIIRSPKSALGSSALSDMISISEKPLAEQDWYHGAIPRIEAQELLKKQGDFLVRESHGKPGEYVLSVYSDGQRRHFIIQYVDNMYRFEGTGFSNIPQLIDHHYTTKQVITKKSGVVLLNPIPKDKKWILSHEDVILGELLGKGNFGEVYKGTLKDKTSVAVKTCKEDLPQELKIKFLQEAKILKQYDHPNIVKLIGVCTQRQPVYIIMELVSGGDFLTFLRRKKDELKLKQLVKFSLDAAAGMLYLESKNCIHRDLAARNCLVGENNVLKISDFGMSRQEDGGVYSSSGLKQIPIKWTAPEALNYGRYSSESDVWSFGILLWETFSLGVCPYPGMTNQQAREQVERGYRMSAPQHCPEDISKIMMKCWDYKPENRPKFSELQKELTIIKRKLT
Sequence of Phosphatidylinositol 4-kinase beta (Homo sapiens) (Q9UBF8 2-816 limits assumed): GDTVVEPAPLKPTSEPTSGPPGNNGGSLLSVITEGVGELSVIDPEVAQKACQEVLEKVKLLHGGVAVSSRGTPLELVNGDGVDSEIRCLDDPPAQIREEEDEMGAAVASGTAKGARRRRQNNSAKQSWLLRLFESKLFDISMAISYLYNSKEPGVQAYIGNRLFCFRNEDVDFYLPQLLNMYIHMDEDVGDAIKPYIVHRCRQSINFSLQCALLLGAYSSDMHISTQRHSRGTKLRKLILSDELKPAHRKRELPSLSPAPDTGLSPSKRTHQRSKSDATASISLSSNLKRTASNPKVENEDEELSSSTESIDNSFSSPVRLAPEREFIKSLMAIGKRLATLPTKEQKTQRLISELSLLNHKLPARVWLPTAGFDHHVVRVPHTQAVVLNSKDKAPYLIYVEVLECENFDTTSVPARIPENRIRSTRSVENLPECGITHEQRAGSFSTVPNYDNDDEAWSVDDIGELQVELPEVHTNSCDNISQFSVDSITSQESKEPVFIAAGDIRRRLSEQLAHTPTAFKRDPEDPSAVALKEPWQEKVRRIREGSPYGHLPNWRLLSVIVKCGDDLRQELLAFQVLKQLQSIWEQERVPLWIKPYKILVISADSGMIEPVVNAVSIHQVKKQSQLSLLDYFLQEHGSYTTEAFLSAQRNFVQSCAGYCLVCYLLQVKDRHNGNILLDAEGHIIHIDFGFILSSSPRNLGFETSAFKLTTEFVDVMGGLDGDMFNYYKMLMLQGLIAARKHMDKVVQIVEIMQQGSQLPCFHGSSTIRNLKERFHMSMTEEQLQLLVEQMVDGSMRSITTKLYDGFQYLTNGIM
Sequence of Mitogen-activated protein kinase kinase kinase 1 (Homo sapiens) (Q13233 whole entry): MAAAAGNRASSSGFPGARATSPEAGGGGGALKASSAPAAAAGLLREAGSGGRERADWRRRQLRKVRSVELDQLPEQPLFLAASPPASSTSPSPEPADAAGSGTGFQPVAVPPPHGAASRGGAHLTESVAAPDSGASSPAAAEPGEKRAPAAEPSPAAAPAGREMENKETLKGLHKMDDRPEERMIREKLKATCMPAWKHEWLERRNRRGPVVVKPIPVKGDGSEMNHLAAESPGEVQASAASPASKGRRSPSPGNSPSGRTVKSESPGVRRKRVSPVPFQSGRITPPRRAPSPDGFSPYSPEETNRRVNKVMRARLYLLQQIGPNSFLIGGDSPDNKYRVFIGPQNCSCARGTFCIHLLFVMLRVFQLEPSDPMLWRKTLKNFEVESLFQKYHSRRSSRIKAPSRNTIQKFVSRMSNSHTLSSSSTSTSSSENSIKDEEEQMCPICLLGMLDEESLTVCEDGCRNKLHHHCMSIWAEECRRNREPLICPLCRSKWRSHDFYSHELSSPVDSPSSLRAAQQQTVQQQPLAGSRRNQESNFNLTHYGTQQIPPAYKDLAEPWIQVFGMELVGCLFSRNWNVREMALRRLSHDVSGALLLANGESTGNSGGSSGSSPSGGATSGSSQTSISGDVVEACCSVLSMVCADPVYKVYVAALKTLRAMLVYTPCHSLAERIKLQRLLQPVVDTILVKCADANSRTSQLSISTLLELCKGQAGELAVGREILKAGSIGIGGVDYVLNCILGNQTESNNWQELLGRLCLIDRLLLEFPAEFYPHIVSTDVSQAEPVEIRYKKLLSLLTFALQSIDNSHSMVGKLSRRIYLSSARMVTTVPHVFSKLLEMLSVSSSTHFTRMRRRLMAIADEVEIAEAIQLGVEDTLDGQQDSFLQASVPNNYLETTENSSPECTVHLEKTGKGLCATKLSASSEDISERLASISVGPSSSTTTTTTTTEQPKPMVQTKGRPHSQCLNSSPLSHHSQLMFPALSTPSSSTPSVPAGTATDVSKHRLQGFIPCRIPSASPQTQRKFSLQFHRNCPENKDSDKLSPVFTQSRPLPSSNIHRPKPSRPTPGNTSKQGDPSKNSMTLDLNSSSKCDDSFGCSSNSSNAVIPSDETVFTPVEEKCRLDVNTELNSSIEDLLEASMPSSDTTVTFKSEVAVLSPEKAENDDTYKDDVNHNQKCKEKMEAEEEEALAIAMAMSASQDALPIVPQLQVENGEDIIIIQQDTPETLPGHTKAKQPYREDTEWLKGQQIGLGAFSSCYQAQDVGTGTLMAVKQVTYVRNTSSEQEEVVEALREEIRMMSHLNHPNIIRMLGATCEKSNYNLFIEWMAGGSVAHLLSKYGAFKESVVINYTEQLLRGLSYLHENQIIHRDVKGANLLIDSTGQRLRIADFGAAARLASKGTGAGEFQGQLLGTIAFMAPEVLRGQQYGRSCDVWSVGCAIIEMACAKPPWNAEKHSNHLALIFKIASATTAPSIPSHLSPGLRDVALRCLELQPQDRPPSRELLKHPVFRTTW

C[C@H]1COc2c(NCCCc3ccccn3)c(F)c(N)c3c(=O)c(C#N)cn1c23
< 35%: inhibition [1] | inhibition [2] | inhibition [3] | inhibition [4] | inhibition [5] | inhibition at 0.1 µM (HL-60) | inhibition [6] | inhibition [7]

C[C@H]1COc2c(NCCCc3ccccn3)c(F)c(N)c3c(=O)c(C(=O)O)cn1c23
< 35%: inhibition [1] | inhibition [2] | inhibition [3] | inhibition [4] | inhibition [5] | inhibition at 0.1 µM (HL-60) | inhibition [6] | inhibition [7]

C[C@H]1COc2c(NCCCn3cccn3)c(F)c(N)c3c(=O)c(C(=O)O)cn1c23
< 35%: inhibition [1] | inhibition [2] | inhibition [3] | inhibition [4] | inhibition [5] | inhibition at 0.1 µM (HL-60) | inhibition [6] | inhibition [7]

C[C@H]1COc2c(NCCCn3cccn3)c(F)c(N)c3c(=O)c(C#N)cn1c23
< 35%: inhibition [1] | inhibition [2] | inhibition [3] | inhibition [4] | inhibition [5] | inhibition at 0.1 µM (HL-60) | inhibition [6] | inhibition [7]
